These results are taken from patent US20200247855A1, “THERAPY AND DIAGNOSTICS” (OXFORD UNIVERSITY INNOVATION LIMITED, priority 2017, published 2020).

No end group written: not given here.

For test [1], the target named is T1, CCL8_HUMAN (Homo sapiens, UniProt P80075).
T1 sequence (P80075 24-99): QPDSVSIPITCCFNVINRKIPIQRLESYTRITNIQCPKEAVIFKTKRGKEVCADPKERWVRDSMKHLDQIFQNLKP
Nature of the test: Neutralisation of chemokine induced THP-1 cell migration. Type of test: cell-based. Here is the method: Table 1. Tick CKBPs described in PCT/GB2017/050563 and [17]. Tick peptide sequences isolated in yeast surface display fluorescent-activated cell sorting (FACS) screens using a labelled chemokine. Identity with Evasin-1, 4 or 3 was calculated using BLAST. Abbreviations: IXORI—Ixodes ricinus, RHISA—Rhipicephalus sanguineus, AMBMA—Amblyomma maculatum, AMBPA—Amblyomma parvum, AMBTR—Amblyomma triste, AMBAM—Amblyomma americanum, AMBCA—Amblyomma cajennense, RHIPU—Rhipicephalus pulchellus. Table 2A-C. Binding characteristics of tick CKBPs previously disclosed (PCT/GB2017/050563 and [17]). All members of the human chemokine family[164] are listed in column 1. Binding to human chemokines was determined for 14 tick CKBPs using biolayer interferometry (BLI) with calculated Kd shown as Molar (Moles/Litre). Binding data for 17 other novel tick CKBPs was assayed using yeast surface display[17,166],with positive binding results shown as “YES”. For biolayer interferometry, His-tagged purified tick CKBP was bound to a Ni-NINTA sensor on an OctetRed® 384 system, and then binding to each chemokine listed (with the exception of CCL25, CCL26, CXCL16, CXCL17, CXCL4L1, XCL2) was assayed in a cross-binding screen at a chemokine concentration of 300 nM as described. For those chemokines showing binding to a tick CKBP in the cross-binding screen, binding assays were repeated using different doses of chemokine. Association, equilibrium and dissociation data were analysed using Octet software to create corresponding fitted curves, and used to calculate Kd. For yeast surface display, (YSD) background fluorescence was controlled for by using either an empty vector or by omitting the chemokine (i.e. using streptavidin-Alexa647 alone). An arbitrary threshold of >3 fold over background mean fluorescence intensity was chosen to describe confirmed re-tests. Where binding was detected data are indicated as “YES”. […] For yeast surface display data, empty cells represent chemokines that were not tested. Binding data published in relation to previously described tick CKBPs (Evasins-1, 4 and 3) is also shown for comparison in each of FIGS. 2A-C, with the relevant data obtained from publications: [20-22,32]. Table 3: Neutralisation of human chemokines by tick CKBPs previously disclosed (PCT/GB2017/050563 and [17]). Neutralising activity was determined using a quantitative THP1 cell migration assay in a 96-well Boyden chamber with chemokine in the bottom chamber as described. Cells migrating through to the bottom chamber at 4 hours were counted using flow cytometry in a 96 well plate format. IC50 for neutralisation was determined at the chemokine EC80 dose as determined using a range of tick CKBP concentrations. Data was analysed using GraphPad Prism to determine IC50, which is shown as Molar (Moles/Litre). Empty cells represent experiments not done. Table 4—Other previously described tick CKBPs. Tick CKBPs that were also described in PCT/GB2017/050563 and Singh et al. are indicated in “Notes”. Table 5.—Novel tick CKBPs of the invention. Table 6. […] The peptide sequence prefix indicates the identity, and suffix indicate the tick species as follows: AMBCA, Amblyomma cajennense and IXORI, Ixodes ricinus. […] Individual yeast clones recovered from the library were re-tested using a FACS (fluorescence activated cell sorting), experiment. The binding of the peptide to the chemokine was assayed by measuring the percent (%), of yeast cells expressing the given peptide that exceeded a background threshold set by measuring the fluorescence of the yeast library pool treated with streptavidin-[…] alone. When more than one independent yeast clone was isolated for a given peptide-chemokine combination, the mean percent shift was calculated and reported in column 3.

Test [2] concerns the target T2, human CCL8-647 (Homo sapiens, UniProt P80075).
T2 construct: purchased Almac (UK)
T2 sequence (P80075 24-99): T1 sequence (P80075 24-99)
Nature of the test: Fluorescent chemokine binding to THP-1 cells (flow cytometry). Particulars: FIG. 16 A, B. Type of test: cell-based. Here is the method:
P672_PEP_SCRAM (C-terminally amidated)=[…] FIG. 16(A). […] 60 μM (+) P672_PEP or P672_PEP_SCRAM were incubated with CCL8-647 (2.5 nM) for half an hour at 37° C. prior to adding to THP-1 cells and incubating everything together for a further half an hour at 37° C. Cells were then analysed using fluorescence assisted cell sorting (10,000 cells analysed) and MFI recorded. Experiment carried out in triplicate where each data point is the average of one experiment carried out in technical triplicate. Mean with SEM shown and statistical significance was determined using one-way ANOVA with Sidak's correction for multiple comparisons using Graph Pad Prism 6. ****=P<0.00005, ns=not significant.
Data are shown as mean of two technical replicates. […] Curves were fitted with 4 parameters to estimate IC50.
Fluorescent chemokine (conjugated to AlexaFluor-647) binding to THP-1 cells results in an increase in the cellular fluorescence intensity, which is quantitatively measured using flow cytometry.
Fluorescent Chemokine/Receptor Blocking Assay CCL8-647 (2.5 nM, final) or […] (1.2 nM, final) was incubated for 30 minutes with varying doses of peptide (0-100 μM, final concentration) in 50 μL assay buffer (RPMI-1640+L-glutamine (4 mM)+10% heat treated fetal bovine serum+0.2% DMSO) at 37° C. […]
(In flow cytometry, cells or beads pass a laser one at a time.)

For the substance EDEDYEDFFKPVTAYF-NH2 [BK1.1], the IC50 in test [1] was found to be 510 nM. For the same substance, the “Inhibition of CCL8-647 binding to THP-1 cells” value in test [2] is listed as “could inhibit CCL8-647 binding to THP-1 cells”.

What is called IC50 is the concentration needed to halve the response being measured.
